Like-named read-outs stand apart in the source and are kept apart here. Blank lines part the entries; values can stand above or below the compound they belong to.
Legend:
[1] = target: T1, M1R-YFP / ΔN-THIK-2 channel (Homo sapiens, UniProt P11229); assay: M1R-YFP-induced increase of ΔN-THIK-2 channel current in CHO-K1 cells; format: cell-based, mouse; details: oxo-M 10 μM
T1 construct: expressed in transfected cells; host or cells: CHO-K1
T1 sequence (P11229 1-460): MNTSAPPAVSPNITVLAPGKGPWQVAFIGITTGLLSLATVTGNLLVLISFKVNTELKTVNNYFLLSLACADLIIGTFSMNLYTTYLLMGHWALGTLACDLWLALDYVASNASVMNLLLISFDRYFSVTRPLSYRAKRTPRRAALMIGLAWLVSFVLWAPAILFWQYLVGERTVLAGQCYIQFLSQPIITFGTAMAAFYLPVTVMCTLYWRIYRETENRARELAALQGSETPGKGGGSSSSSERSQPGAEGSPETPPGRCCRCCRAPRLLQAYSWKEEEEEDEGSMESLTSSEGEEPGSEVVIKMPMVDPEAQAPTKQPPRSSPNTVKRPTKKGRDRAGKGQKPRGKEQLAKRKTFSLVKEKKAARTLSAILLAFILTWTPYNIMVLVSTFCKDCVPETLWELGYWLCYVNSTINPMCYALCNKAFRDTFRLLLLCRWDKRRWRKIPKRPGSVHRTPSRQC
Source text: (§1) Coding region of mGu2 (M1-P840) was amplified by conventional PCR with designed primers and the resulting product was subcloned into pEYFP-N1 vector at the BglII and EcoRI sites. The cDNAs for mouse THIK-2 channel and dimeric THIK channels were subcloned into pcDNA3.1(-) vector. To increase the surface membrane expression of the THIK-2 channel, 29 residues (Ser2-Ser30) were removed (ΔN-THIK-2). […] Ci-VSP-IRES-GFP vector was kindly gifted by Dr. Y. Okamura (Osaka University, Osaka, Japan). HEK293T cells or CHO-K1 cells were seeded on glasses and transfected with the plasmid DNAs for THIK channels, receptors and a transfection marker of yellow fluorescent protein (YFP). Electrophysiological experiments were performed 24–72 h after the transfection. […] Pertussis toxin (PTX) was purchased from Wako (Osaka, Japan). […] All reagents were dissolved at high concentration and stored at -20 °C as the stock solutions. The stock reagent solution was diluted at concentrations for the electrophysiological experiments. PTX was solved in the culture medium (final concentration, 300 ng/mL) and cells were incubated in it for more than 16 h. U73122 or U73343 (final concentration, 2 μM each) was dissolved in Hanks’ Balanced Salt Solution (HBSS, Invitrogen, Carlsbad, CA, USA) supplemented with 1 mM Ca^2+ and 0.3 mM Mg^2+. […]

[2] = system: THIK-1 channel; assay: Basal current (I0) density of THIK-1 channel at 0 mV in HEK293T cells; format: cell-based; details: for Basal current (I0) density of THIK-1 channel: 0 mV, before agonist; for Basal current I0: THIK-1 & M1R
Source text: (§2) Coding region of mGu2 (M1-P840) was amplified by conventional PCR with designed primers and the resulting product was subcloned into pEYFP-N1 vector at the BglII and EcoRI sites. The cDNAs for mouse THIK-2 channel and dimeric THIK channels were subcloned into pcDNA3.1(-) vector. To increase the surface membrane expression of the THIK-2 channel, 29 residues (Ser2-Ser30) were removed (ΔN-THIK-2). […] Ci-VSP-IRES-GFP vector was kindly gifted by Dr. Y. Okamura (Osaka University, Osaka, Japan). HEK293T cells or CHO-K1 cells were seeded on glasses and transfected with the plasmid DNAs for THIK channels, receptors and a transfection marker of yellow fluorescent protein (YFP). Electrophysiological experiments were performed 24–72 h after the transfection. […] Pertussis toxin (PTX) was purchased from Wako (Osaka, Japan). […] All reagents were dissolved at high concentration and stored at -20 °C as the stock solutions. The stock reagent solution was diluted at concentrations for the electrophysiological experiments. PTX was solved in the culture medium (final concentration, 300 ng/mL) and cells were incubated in it for more than 16 h. U73122 or U73343 (final concentration, 2 μM each) was dissolved in Hanks’ Balanced Salt Solution (HBSS, Invitrogen, Carlsbad, CA, USA) supplemented with 1 mM Ca^2+ and 0.3 mM Mg^2+. Cells were incubated in HBSS with U73122 or U73343 for 10 min at room temperature before the whole cell current recording.
(§3) Composition of bath solution was (in mM) 140 NaCl, 4 KCl, 1 CaCl2, 0.3 MgCl2, 10 HEPES (pH 7.4 adjusted with NaOH). The pipette solution for whole cell patch clamp experiments contained (mM) 130 KCl, 5 Na2-ATP, 3 EGTA, 0.1 CaCl2, 10 HEPES, 4 MgCl2, (pH 7.3 adjusted with KOH). GTP (0.3 mM) was supplemented in the pipette solution. Once the whole cell configuration was established, the cell was held at -80mV and ramp pulses (-120mV to +40mV for 0.4 sec) were applied every 5 sec. Various concentrations of the agonists were applied using a fast perfusion system (VC77SP, Warner Instruments, Hamden, CT, USA). The PKC inhibitor chelerythrine was included in the pipette solution.
(§4) The amplitude of the THIK-1 channel current at 0 mV was measured from every trace induced by the ramp pulse protocol to minimize the fraction of non-selective cationic leak current. The current amplitude before the agonist application was set as the basal current amplitude (I0). The effects of GPCRs on the THIK-1 channel were evaluated as the ratio of the current amplitude after the agonist application to I0 (Iagonist/I0). The EC50 values were estimated by fitting the concentration response curve to a Hill equation (Origin2016; OriginLab, Northampton, MA, USA). […] The effects of A2aR on the Gi/o-R-induced current increase of the THIK-1 channel was estimated as follows. […] All data are shown as means and S.D. The statistical significance between two or more than two groups was estimated by unpaired Student’s t-test or by a one-way analysis of variance (ANOVA) followed by Tukey’s test, respectively. […] Values of p≤ 0.05 were considered as statistically significant (***:p≤0.001, **:0.001<p≤0.01, *:0.01<p≤0.05, n.s.:p>0.05).

[3] = target: T2, M1R (Homo sapiens, UniProt P11229); assay: M1R-induced increase of THIK-1 channel current, whole cell patch clamp in HEK293T cells; format: cell-based; details: for Ioxo/I0: oxo-M 10 μM
T2 construct: expressed in transfected cells; host or cells: HEK293T
T2 sequence (P11229 1-460): T1 sequence (P11229 1-460)
Source text: as §2, §3, §4

[4] = system: endogenously expressed channels in HEK293T cells; assay: Effect of receptor stimulation on the endogenous current in HEK293T cells without THIK-1; format: cell-based; details: no THIK-1
Source text: The amplitude of the current increase at the 15th trace (ΔI15th) after the application of GABA or oxo-M were normalized to that at the 5th traces (ΔI5th) with or without additional activation of A2aR (ΔI15th/ΔI5th).
The current density at 0 mV (I0) in HEK293T cell transfected with indicated receptors and the effects of the receptor stimulation are shown as Mean and S.D.

[5] = target: T3, M2R (Homo sapiens, UniProt P08172); assay: M2R-induced increase of THIK-1 channel current, whole cell patch clamp in HEK293T cells; format: cell-based
T3 construct: expressed in transfected cells; host or cells: HEK293T
T3 sequence (P08172 1-466): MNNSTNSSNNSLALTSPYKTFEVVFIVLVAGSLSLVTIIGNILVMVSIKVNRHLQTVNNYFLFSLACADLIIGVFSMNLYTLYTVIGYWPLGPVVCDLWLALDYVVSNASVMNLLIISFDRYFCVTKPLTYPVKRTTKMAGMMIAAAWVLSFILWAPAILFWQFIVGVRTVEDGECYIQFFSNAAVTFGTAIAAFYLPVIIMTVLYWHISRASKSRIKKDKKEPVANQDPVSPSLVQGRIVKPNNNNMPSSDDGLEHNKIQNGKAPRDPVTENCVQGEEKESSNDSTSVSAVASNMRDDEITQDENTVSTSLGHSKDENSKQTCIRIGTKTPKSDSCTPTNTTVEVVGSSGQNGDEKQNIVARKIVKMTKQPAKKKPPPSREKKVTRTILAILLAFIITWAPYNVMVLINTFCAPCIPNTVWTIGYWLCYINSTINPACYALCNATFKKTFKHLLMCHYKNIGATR
Source text: as §1, with “experiments.” for “experiments. PTX was solved in the culture medium (final concentration, 300 ng/mL) and cells were incubated in it for more than 16 h. U73122 or U73343 (final concentration, 2 μM each) was dissolved in Hanks’ Balanced Salt Solution (HBSS, Invitrogen, Carlsbad, CA, USA) supplemented with 1 mM Ca^2+ and 0.3 mM Mg^2+.”
(§5) The amplitude of the THIK-1 channel current at 0 mV was measured from every trace induced by the ramp pulse protocol to minimize the fraction of non-selective cationic leak current. […] The effects of GPCRs on the THIK-1 channel were evaluated as the ratio of the current amplitude after the agonist application to I0 (Iagonist/I0). […]

[6] = target: T4, M3R (Homo sapiens, UniProt P20309); assay: M3R-induced increase of THIK-1 channel current, whole cell patch clamp in HEK293T cells; format: cell-based
T4 construct: expressed in transfected cells; host or cells: HEK293T
Source text: as §1, with “experiments.” for “experiments. PTX was solved in the culture medium (final concentration, 300 ng/mL) and cells were incubated in it for more than 16 h. U73122 or U73343 (final concentration, 2 μM each) was dissolved in Hanks’ Balanced Salt Solution (HBSS, Invitrogen, Carlsbad, CA, USA) supplemented with 1 mM Ca^2+ and 0.3 mM Mg^2+.”
as §5

[7] = system: THIK-1 channel; design: method as in PMID 24081450; details: cited from earlier work
[8] = system: THIK-1 channel; design: method as in PMID 34928298; details: cited from earlier work
[9] = chelerythrine 3 μM in pipette solution
[10] = chelerythrine 10 μM in pipette solution
[11] = chelerythrine 30 μM in pipette solution
[12] = concentration response of THIK-1 current increase
[13] = concentration response of THIK-1 current increase (Iagonist/I0), Hill fit

T4 sequence (P20309 whole entry): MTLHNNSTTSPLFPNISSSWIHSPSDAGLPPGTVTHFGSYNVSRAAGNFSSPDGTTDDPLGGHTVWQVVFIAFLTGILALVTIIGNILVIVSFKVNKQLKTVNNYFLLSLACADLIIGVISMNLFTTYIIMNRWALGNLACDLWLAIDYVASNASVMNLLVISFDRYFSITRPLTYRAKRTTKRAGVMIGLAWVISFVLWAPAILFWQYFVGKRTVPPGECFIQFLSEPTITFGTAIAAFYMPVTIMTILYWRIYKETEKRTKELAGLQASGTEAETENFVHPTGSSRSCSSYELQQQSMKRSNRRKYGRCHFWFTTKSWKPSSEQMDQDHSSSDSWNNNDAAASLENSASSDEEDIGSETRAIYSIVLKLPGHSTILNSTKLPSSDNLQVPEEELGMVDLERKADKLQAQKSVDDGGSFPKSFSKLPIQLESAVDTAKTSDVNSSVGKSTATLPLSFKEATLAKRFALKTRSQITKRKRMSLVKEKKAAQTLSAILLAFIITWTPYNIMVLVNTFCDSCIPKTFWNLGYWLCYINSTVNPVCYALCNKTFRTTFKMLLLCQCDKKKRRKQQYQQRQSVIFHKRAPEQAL

effect of M1R-YFP on ΔN-THIK-2 channel after PLC reagent [1]: not
Compound: COc1ccc2c(c1)CC[C@@H]1[C@@H]2CC[C@]2(C)[C@@H](NCCCCCCN3C(=O)CCC3=O)CC[C@@H]12 [U73343]
Basal current (I0) density of THIK-1 channel ([2]; THIK-1 + M1R, PLC reagent 2 μM 10 min): 46.5 ± 22.3 (10)^n.s pA/pF
Basal current (I0) density of THIK-1 channel ([2]; THIK-1 + M3R, PLC reagent 2 μM 10 min): 113.3 ± 122.1 (7)^n.s pA/pF
Basal current (I0) density of THIK-1 channel ([2]; THIK-1 + mGlu1, PLC reagent 2 μM 10 min): 121.0 ± 104.7 (12)^n.s pA/pF

Compound: COc1ccc2c(c[n+](C)c3c4cc5c(cc4ccc23)OCO5)c1OC [chelerythrine, Chelerythrine]
effect of PKC inhibitor on the effect of M1R ([3]; 3–30 μM in the pipette solution): did not inhibit the effect of M1R
Ioxo/I0 [3, 9]: 4.4 ± 2.4 ^n.s.
Ioxo/I0 [3, 10]: 2.2 ± 0.6 ^n.s.
Ioxo/I0 [3, 11]: 2.7 ± 1.0 ^n.s.
Basal current I0 [2, 9]: 43.1 ± 46.8 ^n.s. pA/pF
Basal current I0 [2, 10]: 56.4 ± 46.7 ^n.s. pA/pF
Basal current I0 [2, 11]: 22.8 ± 15.5 ^n.s. pA/pF

Compound: C[N+](C)(C)CC#CCN1CCCC1=O [oxo-M, oxotremorine-M]
EC50 ([3]; concentration response of THIK-1 current increase (Iagonist/I0), Hill fit, HEK293T): 270 ± 160 nM
n; Hill coefficient ([3]; concentration response of THIK-1 current increase, HEK293T): 1.14 ± 0.22
Ioxo/I0 ([3]; chelerythrine 0 μM (control of Table 3)): 2.8 ± 1.1
Effect of agonist (Iagonist/I0) ([4]; HEK293T transfected with M1R): 0.95 ± 0.15
Effect of agonist (Iagonist/I0) ([4]; HEK293T transfected with M2R): 0.97 ± 0.12
Effect of agonist (Iagonist/I0) ([4]; HEK293T transfected with M3R): 1.01 ± 0.13
n; Hill coefficient [5, 12]: 1.54 ± 0.37
EC50 [5, 13]: 62700 ± 35800 nM
n; Hill coefficient [6, 12]: 1.07 ± 0.43
EC50 [6, 13]: 400 ± 310 nM

Compound: CCCCCCCCCCCCCC(=O)O[C@@H]1[C@@H](C)[C@@]2(O)[C@@H](C=C(CO)C[C@]3(O)C(=O)C(C)=C[C@@H]23)[C@@H]2C(C)(C)[C@]12OC(C)=O [phorbol myristate acetate]
activation of the THIK-1 channel [7]: did not activate

Compound: phosphatidyl inositol bisphosphate [PIP2]
activation of the THIK-1 channel [8]: directly activate

— article PMC10132538, “Regulation of the two-pore domain potassium channel, THIK-1 and THIK-2, by G protein coupled receptors” (PLOS ONE, 2023)
